Laboratory results published in publication PMC8767159, “Multiparameter Optimization of Trypanocidal Cruzain Inhibitors With In Vivo Activity and Favorable Pharmacokinetics” (Frontiers in Pharmacology, 2022).

Columns and labels:
cruzain = biological target: T1, cruzain (Trypanosoma cruzi, UniProt P25779); assay: Cruzain enzyme inhibition assay (cleavage of fluorogenic substrate Z-FR-AMC); type: biochemical
T1 construct: made in house; host or cells: Escherichia coli (strain M15)
Protocol: Pro-cruzain truncated at the C-terminus was expressed and purified using a previously described protocol ([Ferreira et al., 2019]). Escherichia coli (strain M15) cultures were grown overnight at 37°C and 200 rpm in Luria Bertani (LB) medium supplemented with ampicillin (100 μg/ml) and kanamycin (50 μg/ml). Next, the cultures were diluted 10-fold in fresh LB medium supplemented with 0.5 M NaCl, 0.2% glucose, 1 mM betaine, 0.5 M sorbitol, 100 μg/ml ampicillin, and 50 μg/ml kanamycin and incubated at 37°C and 200 rpm. At an optical density (OD600) of 0.9, the cultures were incubated at 47°C for 20 min to promote the expression of chaperones. Then, the expression of cruzain was induced by adding isopropyl β-D-thiogalactopyranoside (IPTG) to a final concentration of 0.2 mM, which was followed by overnight incubation of the cultures at 20°C and 200 rpm. Next, the cultures were centrifuged (5,000 rpm, 30 min, 4°C), and the cells were suspended in 50 ml of lysis buffer (300 mM NaCl, 50 mM Tris-HCl, and 1.6 mg/ml lysozyme, pH 8.0) per liter of culture and lysed by sonication (12 cycles of 30 s). This cell lysate was centrifuged (9,000 rpm, 30 min, 4°C), and the supernatant was collected. Cruzain was precipitated by incubation with 35% ammonium sulfate (2 h), and this suspension was centrifuged at 9,000 rpm for 30 min at 4°C. The precipitated cruzain was resuspended in lysis buffer, and the sample was dialyzed to eliminate ammonium sulfate. The soluble fraction of the dialysate was loaded on a Ni−NTA column (Qiagen, Hilden, Germany), and the contaminants were washed using washing buffer (300 mM NaCl, 50 mM Tris-HCl, and 10 mM imidazole, pH 8.0). Cruzain was eluted by applying an increasing imidazole gradient: 25, 50, 75, 100, and 250 mM. The fractions containing cruzain were pooled together and dialyzed against 1.5 L of 0.1 M acetate buffer, pH 5.5, and then concentrated to 0.5 mg/ml. Pro-cruzain was activated by incubation with activation buffer (100 mM sodium acetate, pH 5.5, 10 mM EDTA, 5 mM DTT, and 1 M NaCl) at 37°C. […] After activation, the enzyme was diluted 20-fold in binding buffer (20 mM sodium phosphate and 150 mM NaCl, pH 7.2) and added to thiopropyl Sepharose 6B resin (GE Healthcare Life Sciences, Pittsburgh, PA). After overnight incubation at 4°C, the resin was loaded on a column, and cruzain was eluted with binding buffer supplemented with 20 mM DTT. Fractions containing cruzain were pooled together and stored in 0.1 M sodium acetate, pH 5.5, at −80°C.
Cruzain activity was followed by monitoring the cleavage of the fluorogenic substrate Z-Phe-Arg-aminomethyl coumarin (Z-FR-AMC), as previously described ([Ferreira et al., 2019]), using 96-well flat-bottom black plates and wavelengths of 355 nm for excitation and 460 nm for emission. All cruzain assays were performed in 0.1 M sodium acetate buffer with 5 mM dithiothreitol (DTT) and 0.01% Triton X-100, pH 5.5. […] The cleavage of the substrate was monitored for 5 min, and the activity was calculated based on the initial reaction rates compared with the rate of a DMSO control at 30°C. The IC50 values were independently calculated by considering the rate measurements for at least six inhibitor concentrations, each evaluated in triplicate. To determine the mechanism of cruzain inhibition, eight concentrations of the substrate Z-FR-AMC and four concentrations of the inhibitor were employed, each in triplicate. Kinetic parameters were determined using the SigmaPlot (Systat Software Inc., Erkrath, Germany) enzyme kinetics module. Compounds were tested in two or three independent experiments. All enzyme assays were performed using varying Triton X-100 concentrations (0, 0.01, and 0.1%) ([Ferreira et al., 2009]). Compound concentrations were 100 μM in the single-dose percentage inhibition assays.

rhodesain = rhodesain (Trypanosoma brucei rhodesiense, UniProt Q95PM0); assay: Rhodesain fluorescence-based inhibition assay (Z-FR-AMC); type: biochemical; conditions: Table S3; compound 100 µM
rhodesain, sequence (Q95PM0 entry or part of it): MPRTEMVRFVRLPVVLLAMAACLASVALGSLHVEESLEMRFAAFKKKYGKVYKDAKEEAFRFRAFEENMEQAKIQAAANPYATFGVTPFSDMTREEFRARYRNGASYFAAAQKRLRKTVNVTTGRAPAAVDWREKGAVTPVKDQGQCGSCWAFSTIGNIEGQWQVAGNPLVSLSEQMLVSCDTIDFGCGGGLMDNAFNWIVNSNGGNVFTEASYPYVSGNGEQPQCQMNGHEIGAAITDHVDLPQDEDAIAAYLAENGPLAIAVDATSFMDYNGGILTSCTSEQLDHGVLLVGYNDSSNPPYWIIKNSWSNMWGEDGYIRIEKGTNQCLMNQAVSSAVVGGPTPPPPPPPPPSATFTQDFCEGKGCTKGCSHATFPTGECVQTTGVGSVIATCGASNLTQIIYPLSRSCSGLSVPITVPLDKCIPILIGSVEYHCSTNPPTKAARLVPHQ
Protocol: Rhodesain activity was measured using a fluorescence-based assay as previously described ([Fonseca et al., 2015]). The cleavage rates of the fluorogenic substrate Z-Phe-Arg-aminomethyl coumarin (Z-FR-AMC) were monitored at wavelengths of 340 nm for excitation and 440 nm for emission. All assays were performed in triplicate in a 0.1 M sodium acetate buffer, pH 5.5, with 1 mM beta-mercaptoethanol and 0.01% Triton X-100. The final concentration of rhodesain was 3 nM, and the substrate concentration was 2.5 μM. The cleavage of the substrate was followed by continuous reading for 5 min, and enzyme activity in the presence of 100 μM of each potential inhibitor was calculated based on initial velocity rates compared to DMSO controls. All compounds were tested in triplicate in three independent experiments.

[1] = test system: T. cruzi intracellular amastigotes; assay: Assay against T. cruzi intracellular amastigotes (Tulahuen lacZ strain in HFF-1 fibroblasts); type: cell-based, Trypanosoma cruzi; conditions: Trypanosoma cruzi, HFF-1, 120 h, Table 3, 120 h, mean ± SD of three assays
Protocol: Biological assays against T. cruzi intracellular amastigotes were performed as reported previously using the T. cruzi Tulahuen strain, which is genetically engineered to express the E. coli β-galactosidase gene lacZ ([Buckner et al., 1996]). β-Galactosidase catalyzes a colorimetric reaction with chlorophenol red β-D-galactopyranoside (CPRG, Sigma Chemical Co., St. Louis, MO) as the substrate. The assays were conducted in 96-well tissue culture plates, and the compounds to be tested were prepared in 100% DMSO. Epimastigotes were maintained in liver infusion tryptone (LIT) enriched with 10% fetal calf serum (FCS), streptomycin, and penicillin at 28°C. Epimastigotes were converted to trypomastigotes by incubation in Grace’s insect medium (Sigma–Aldrich, St. Louis, MO) enriched with 10% FCS at 28°C. Human HFF-1 fibroblasts were seeded at 2 × 10^3/well in 80 μl of RPMI 1640 without phenol red and incubated overnight at 37°C and 5% CO2. Trypomastigotes were seeded at 1.0 × 10^4/well in 20 μl of RPMI 1640, and the plates were incubated at 37°C and 5% CO2. The next day, the synthesized compounds were added (50 μl) in 3-fold serial dilutions at concentrations ranging from 0.4 to 300 μM, and the plates were incubated at 37°C and 5% CO2. Each compound concentration was assayed in triplicate. After 120 h, 50 μl of chlorophenol red β-D-galactopyranoside (CPRG, Sigma–Aldrich) and IGEPAL CA-630 (Sigma–Aldrich) at a final concentration of 0.1% were added. The absorbance was measured at a wavelength of 570 nm in an automated microplate reader. The data were transferred to SigmaPlot 10.0 (Systat Software Inc., Erkrath, Germany) to determine the IC50 values. Benznidazole (BZ, Sigma–Aldrich) was used as a positive control, and untreated wells (100% parasite growth) were used as negative controls in all plates. All compounds were tested in three independent assays.

[2] = Parallel artificial membrane permeability assay (PAMPA); type: in vitro ADME; conditions: PAMPA, Table 3; donor pH 6.5, acceptor pH 7.4, 5 h
Protocol: The permeability of the compounds was assessed using the PAMPA method ([Yu et al., 2015]). The test compounds were dissolved in DMSO to a concentration of 5 mM. Next, the compounds were diluted in a stock plate in saline phosphate buffer (PBS), pH 6.5, containing 1% DMSO to a concentration of 1 µM. Then, 300 µl of each test compound was added to the donor plate. Afterward, 200 µl of PBS buffer, pH 7.4, was added to the acceptor plate. The donor plate was attached to the acceptor plate. The assembled acceptor-donor plate was then incubated at 37°C for 5 h under gentle agitation. To analyze the concentration of the compounds by mass spectrometry, two analysis plates (one for the donor and another for the acceptor plate) containing 300 μl of MEOH:ACN 50:50 were prepared. To the donor analysis plate, 90 µl of PBS, pH 6.5, and 10 µl of the content of the donor plate were added. For the acceptor analysis plate, 100 µl of the content of the acceptor plate was added. To monitor any potential decomposition/intrinsic instability of the test compounds in solution, samples from the stock plate were subjected to LC-MS/MS. The compounds that presented Pe ≥ 1.5 × 10^−6 cm/s were classified as permeable, while compounds that presented Pe < 1.5 × 10^−6 cm/s were considered poorly permeable or nonpermeable.

T1 sequence (P25779 123-337 limits assumed): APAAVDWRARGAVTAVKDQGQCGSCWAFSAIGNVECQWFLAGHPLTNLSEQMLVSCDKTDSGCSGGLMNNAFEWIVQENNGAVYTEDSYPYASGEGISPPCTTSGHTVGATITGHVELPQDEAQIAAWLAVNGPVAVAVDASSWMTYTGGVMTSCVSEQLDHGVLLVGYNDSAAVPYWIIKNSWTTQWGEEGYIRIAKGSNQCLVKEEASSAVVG

SMILES: O=C(COc1ccc2cc(C(=O)O)ccc2c1)NCCc1nc2ccccc2[nH]1 [Compound 13]
- IC50 (cruzain; 1.5 nM cruzain, 5.0 µM Z-FR-AMC, mean ± SD of 2–3 assays, read-out: IC50 (µM) against cruzain): 24.2 ± 4.5 µM
- inhibition at 100 µM (cruzain; compound 100 µM, mean of three measures): 89%
- inhibition at 100 µM (rhodesain): 54%
- IC50 [1]: > 50 µM
- Papp at 5 h, 1 µM [2]: 0.83 ×10⁻⁶ cm/s
